Measured values as given in patent US6372940B1, “Process for the preparation of non-hygroscopic salts of L(−)-carnitine” (Sigma-Tau Industrie Farmaceutiche Riunite S.p.A, priority 1999, dated 2002).

Key:
[1] = Tapped density of the granulate (U.S. Pharmacopoeia method); assay type: physicochemical; conditions: for tapped density of the granulate: product of the humid melting process of the invention, USP 23 NF 18 method
Description: It is in fact known that an inadequately low density (for example, for L(−)-carnitine acid fumarate, a tapped density value below 0.7 g/mL) provides a too light and flaky product which involves serious processability problems. The bulk density is not a reliable parameter for granulated or powdery products, in that even imperceptible perturbations of the test sample can give rise to remarkably different bulk density values. For the characterization of the density of said materials the tapped density is preferably used, which is the limit density obtained after tapping down the material by subjecting a graduated cylinder containing the granulate or powder to strokes, namely by hoisting the cylinder to a fixed height then dropping it for a fixed number of times. The tapped density is usually determined according to the method described in U.S. Pharmacopoeia, National Formulary, Supplement, USP 23, NF 18, Nov. 15, 1997, pages 3976-3977. Said method is herein incorporated by reference. The material is passed through a 1 mm (n. 18 mesh) sieve to crush any agglomerates formed during storage. About 100 g (M) of the test material are placed without tapping down in a 250 mL graduated cylinder. Using a suitable device, the cylinder is hoisted then dropped under the action of its own weight, from a height of 14+2 mm, with a 300 times/minute fall frequency. The volume of the material after a first 500 fall cycle is then measured. […] The tapped density, in g/mL, is expressed by the formula: M/Vf.

[2] = Hygroscopicity and storage behaviour of the granulate; assay type: physicochemical; conditions: ground to the desired particle size

Compound	tapped density of the granulate [1]	Physico-chemical characteristics of the final compound ([1]; prepared in the presence of a crystallization initiator)	hygroscopicity of the granulate [2]	stability of the granulate in time (packing and/or aggregation) [2]
C[N+](C)(C)C[C@H](O)CC(=O)O.C[N+](C)(C)C[C@H](O)CC(=O)O.O=C([O-])C(O)C(O)C(=O)[O-] [Example 3, L(−)-carnitine Tartrate (2:1)]	0.83 g/mL	–	–	–
L(−)-carnitine Acid Fumarate [Example 2]	–	the same as those obtained in the preparation of Example 1	–	–
L(−)-carnitine Acid Fumarate [Example 1]	0.84 g/mL	–	non-hygroscopic	remained unchanged in time without undergoing packing and/or aggregation
